Laboratory results as given in patent EP4800015A1, “AZABICYCLO DERIVATIVE AND PREPARATION METHOD THEREFOR, AND USE” (Zhejiang Hisun Pharmaceutical Co., Ltd., priority 2023, dated 2025).

Molecular target: T1, recombinant human WRN (Homo sapiens, UniProt Q14191)
T1 construct: purchased BPS 101264
Experiment: Inhibition of WRN enzyme activity (ATPase), ADP-Glo Kinase Assay
Format: biochemical
Settings: WRN protein 5 nM, Flap 0.1 nM, ATP 30 µM; read-out: IC50
Description: The following method was used to determine the degree of inhibition of recombinant human WRN ATPase activity by the compounds of the present disclosure in vitro. In this method, ADP-Glo™ Kinase Assay kit (catalog No. V9102) from Promega was used. Detailed experimental procedures can be found in the kit manual.
The experimental procedure was briefly described as follows: test compounds were first dissolved in DMSO to prepare stock solutions, followed by serial dilution using reaction buffer (30 mM Tris, pH 7.5, 2 mM MgCl2, 50 mM NaCl, 0.02% BSA, 0.1% Pluronic F127), with final concentrations of test compounds in the reaction system ranging from 1000 nM to 0.004 nM; WRN protein (purchased from BPS, catalog No. 101264), substrate 5-flap oligonucleotide (Flap26) (synthesized by Shanghai Generay Biotech Co., Ltd., sequence 5'-[…]-3'), and ATP working solution (from ADP-Glo™ Kinase Assay kit component V915A) were prepared using reaction buffer. Reactions were performed in 384-well microplates. At first the compounds and recombinant human WRN protein (final concentration 5 nM) were added to the wells and the plate was incubated at room temperature for 15 minutes, then Flap solution (final concentration 0.1 nM) and ATP solution (final concentration 30 µM) were added to the reaction solution and the plate was incubated at room temperature for 10 minutes. Subsequently, 5 µL of ADP-Glo Reagent was added to the reaction system and incubated at room temperature for 40 minutes. Then 10 µL of Kinase Detection Reagent was added to the reaction system and incubated at room temperature for 30 minutes. After the incubation was completed, chemiluminescence intensity values of each well were measured using a microplate reader in luminescence mode. The percentage inhibition of the compounds at each concentration was calculated by comparison with the luminescence intensity values of the control group (0.1% DMSO), and IC50 values of compounds were obtained by nonlinear regression analysis of compound concentration logarithm-inhibition rate using GraphPad Prism 9 software, as shown in Table 1.
The IC50 value results of the compounds of the present disclosure are expressed as AA and A, respectively as follows: "AA" indicates IC50 ≤ 1 nM; "A" indicates 1 nM < IC50 ≤ 100 nM. Table 1 IC50 of the compounds of the present disclosure for inhibiting WRN enzyme activity (ATPase)

T1 sequence (Q14191 whole entry): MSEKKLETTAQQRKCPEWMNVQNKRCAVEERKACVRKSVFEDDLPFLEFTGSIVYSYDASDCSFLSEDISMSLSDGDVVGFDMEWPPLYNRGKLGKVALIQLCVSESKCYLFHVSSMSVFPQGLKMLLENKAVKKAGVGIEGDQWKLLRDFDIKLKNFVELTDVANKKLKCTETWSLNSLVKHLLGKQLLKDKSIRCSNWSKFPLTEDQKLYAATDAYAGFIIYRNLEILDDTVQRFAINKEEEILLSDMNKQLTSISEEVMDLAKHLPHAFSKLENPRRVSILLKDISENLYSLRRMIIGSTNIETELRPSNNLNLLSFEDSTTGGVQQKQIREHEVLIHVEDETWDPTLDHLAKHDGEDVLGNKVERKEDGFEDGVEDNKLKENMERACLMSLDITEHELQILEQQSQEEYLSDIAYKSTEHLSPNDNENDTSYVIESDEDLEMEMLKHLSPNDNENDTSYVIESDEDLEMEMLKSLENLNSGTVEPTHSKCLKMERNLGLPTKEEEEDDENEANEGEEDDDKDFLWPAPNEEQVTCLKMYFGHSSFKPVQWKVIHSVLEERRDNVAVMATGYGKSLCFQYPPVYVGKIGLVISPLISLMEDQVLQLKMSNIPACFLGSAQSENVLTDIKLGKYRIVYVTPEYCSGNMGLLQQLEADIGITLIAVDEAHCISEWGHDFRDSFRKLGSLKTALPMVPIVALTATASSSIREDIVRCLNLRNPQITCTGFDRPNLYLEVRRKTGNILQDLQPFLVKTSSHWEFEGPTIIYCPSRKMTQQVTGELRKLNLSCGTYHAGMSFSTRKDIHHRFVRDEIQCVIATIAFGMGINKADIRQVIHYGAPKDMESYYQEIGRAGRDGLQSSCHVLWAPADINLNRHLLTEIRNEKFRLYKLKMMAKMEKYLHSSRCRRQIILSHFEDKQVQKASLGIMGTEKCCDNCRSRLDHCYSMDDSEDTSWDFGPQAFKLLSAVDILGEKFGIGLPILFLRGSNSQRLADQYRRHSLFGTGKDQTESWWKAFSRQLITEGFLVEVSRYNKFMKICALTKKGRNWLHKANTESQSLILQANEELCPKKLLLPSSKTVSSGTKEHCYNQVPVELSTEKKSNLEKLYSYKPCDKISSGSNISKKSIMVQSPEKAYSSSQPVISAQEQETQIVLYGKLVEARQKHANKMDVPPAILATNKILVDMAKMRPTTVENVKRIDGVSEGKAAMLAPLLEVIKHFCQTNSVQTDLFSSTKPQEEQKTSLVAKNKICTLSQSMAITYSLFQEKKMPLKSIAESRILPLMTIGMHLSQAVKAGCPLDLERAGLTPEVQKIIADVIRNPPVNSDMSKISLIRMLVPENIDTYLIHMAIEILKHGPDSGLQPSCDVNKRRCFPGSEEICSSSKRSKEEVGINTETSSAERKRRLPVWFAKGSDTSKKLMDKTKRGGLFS

| SMILES | IC50 |
| --- | --- |
| CCc1c(N2CCN(C(=O)c3ncnc(C)c3O)CC2)c(=O)n2nc(C3CCCCCC3)nc2n1CC(=O)Nc1ccc(C(F)(F)F)cc1Cl [Example 4, N-(2-chloro-4-(trifluoromethyl)phenyl)-2-(2-cycloheptyl-5-ethyl-6-(4-(5-hydroxy-6-methylpyrimidine-4-carbonyl)piperazin-1-yl)-7-oxo-[1,2,4]triazolo[1,5-a]pyrimidin-4(7H)-yl)acetamide] | 1 to 100 nM |
| CCc1c(N2CCN(C(=O)c3ncnc(C)c3O)CC2)c(=O)n2nc(N3CC4(CCOCC4)C3)nc2n1CC(=O)Nc1ccc(C(F)(F)F)cc1Cl [Example 8, N-(2-chloro-4-(trifluoromethyl)phenyl)-2-(5-ethyl-6-(4-(5-hydroxy-6-methylpyrimidine-4-carbonyl)piperazin-1-yl)-7-oxo-2-(7-oxa-2-azaspiro[3.5]nonan-2-yl)-[1,2,4]triazolo[1,5-a]pyrimidin-4(7 H)-yl)acetamide] | 1 to 100 nM |
| CCc1c(N2CCN(C(=O)c3ncnc(C)c3O)CC2)c(=O)n2nc(C3CCCCC3)nc2n1CC(=O)Nc1ccc(C(F)(F)F)cc1Cl [Example 12, N-(2-Chloro-4-(trifluoromethyl)phenyl)-2-(2-cyclohexyl-5-ethyl-6-(4-(5-hydroxy-6-methylpyrimidine-4-carbonyl)piperazin-1-yl)-7-oxo-[1,2,4]triazolo[1,5-a]pyrimidin-4(7H)-yl)acetamide] | 1 to 100 nM |
| CCc1c(N2CCN(C(=O)c3ncnc(C)c3O)CC2)c(=O)n2nc(C3=CC4CCC3C4)nc2n1CC(=O)Nc1ccc(C(F)(F)F)cc1Cl (stereo not drawn) [Example 23, 2-(2-(bicyclo[2.2.1]hept-2-en-2-yl)-5-ethyl-6-(4-(5-hydroxy-6-methylpyrimidine-4-carbonyl)piperazin-1-yl)-7-oxo-[1,2,4]triazolo[1,5-a]pyrimidin-4(7H)-yl)-N-(2-chloro-4-(trifluoromethyl)phenyl)acetamide] | 1 to 100 nM |
| CCc1c(N2CCN(C(=O)c3ncnc(C)c3O)CC2)c(=O)n2nc(-c3cnc4[nH]ncc4c3)nc2n1CC(=O)Nc1ccc(C(F)(F)F)cc1Cl [Example 114, N-(2-chloro-4-(trifluoromethyl)phenyl)-2-(5-ethyl-6-(4-(5-hydroxy-6-methylpyrimidine-4-carbonyl)piperazin-1-yl)-7-oxo-2-(1H-pyrazolo[3,4-b]pyridin-5-yl)-[1,2,4]triazolo[1,5-a]pyrimidin-4(7 H)-yl)acetamide] | 1 to 100 nM |
| CCc1c(N2CCN(C(=O)c3ncccc3O)CC2)c(=O)n2nc(C3=CC4CC(=O)CC4C3)cc2n1CC(=O)Nc1ccc(C(F)(F)F)cc1Cl (stereo not drawn) [Example 56, N-(2-chloro-4-(trifluoromethyl)phenyl)-2-(5-ethyl-6-(4-(3-hydroxypicolinoyl)piperazin-1-yl)-7-oxo-2-(5-oxo-1,3a,4,5,6,6a-hexahydropentalen-2-yl)pyrazolo[1,5-a]pyrimidin-4(7H)-yl)acetamide] | 1 to 100 nM |
| CCc1c(N2CCN(C(=O)c3cccc(C)c3O)CC2)c(=O)n2nc(C3=CCCCCC3)nc2n1CC(=O)Nc1ccc(C(F)(F)F)cc1Cl [Example 11, N-(2-Chloro-4-(trifluoromethyl)phenyl)-2-(2-(cyclohept-1-en-1-yl)-5-ethyl-6-(4-(2-hydroxy-3-methylbenzoyl)piperazin-1-yl)-7-oxo-[1,2,4]triazolo[1,5-a]pyrimidin-4(7H)-yl)acetamide] | 1 to 100 nM |
| CCc1c(N2CCN(C(=O)c3ncnc(C)c3O)CC2)c(=O)n2nc(/C=C/C(=O)N(C)C)nc2n1CC(=O)Nc1ccc(C(F)(F)F)cc1Cl [Example 182, (E)-3-(4-(2-((2-chloro-4-(trifluoromethyl)phenyl)amino)-2-oxoethyl)-5-ethyl-6-(4-(5-hydroxy-6-methylpyrimidine-4-carbonyl)piperazin-1-yl)-7-oxo-4,7-dihydro-[1,2,4]triazolo[1,5-a]pyrimidin-2-yl)-N,N-dimethylacrylamide] | 1 to 100 nM |
| CCc1c(N2CCN(C(=O)c3ncnc(C)c3O)CC2)c(=O)n2nc(-c3ccc4ccn(C)c4c3)nc2n1CC(=O)Nc1ccc(C(F)(F)F)cc1Cl [Example 128, N-(2-chloro-4-(trifluoromethyl)phenyl)-2-(5-ethyl-6-(4-(5-hydroxy-6-methylpyrimidine-4-carbonyl)piperazin-1-yl)-2-(1-methyl-1H-indol-6-yl)-7-oxo-[1,2,4]triazolo[1,5-a]pyrimidin-4(7H)-yl)ac etamide] | 1 to 100 nM |
| CCc1c(N2CCN(C(=O)c3ncnc(C)c3O)CC2)c(=O)n2nc(/C=C(\C)C3CC3)nc2n1CC(=O)Nc1ccc(C(F)(F)F)cc1Cl [Example 36, (E)-N-(2-chloro-4-(trifluoromethyl)phenyl)-2-(2-(2-cyclopropylprop-1-en-1-yl)-5-ethyl-6-(4-(5-hydroxy-6-methylpyrimidine-4-carbonyl)piperazin-1-yl)-7-oxo-[1,2,4]triazolo[1,5-a]pyrimidin-4(7H)-yl)acetamide] | 1 to 100 nM |
| CCc1c(N2CCN(C(=O)c3ncnc(C)c3O)CC2)c(=O)n2nc(-c3cc4c(s3)CCN(CC(F)(F)F)C4)nc2n1CC(=O)Nc1ccc(C(F)(F)F)cc1Cl [Example 179, N-(2-chloro-4-(trifluoromethyl)phenyl)-2-(5-ethyl-6-(4-(5-hydroxy-6-methylpyrimidine-4-carbonyl)piperazin-1-yl)-7-oxo-2-(5-(2,2,2-trifluoroethyl)-4,5,6,7-tetrahydrothieno[3,2-c]pyridin-2-yl)-[1,2,4]triazolo[1,5-a]pyrimidin-4(7H)-yl)acetamide] | < 1 nM |
| CCc1c(N2CCN(C(=O)c3ncnc(C)c3O)CC2)c(=O)n2nc(-c3ccc4c(c3)CC(=O)N4)nc2n1CC(=O)Nc1ccc(C(F)(F)F)cc1Cl [Example 141, N-(2-chloro-4-(trifluoromethyl)phenyl)-2-(5-ethyl-6-(4-(5-hydroxy-6-methylpyrimidine-4-carbonyl)piperazin-1-yl)-7-oxo-2-(2-oxoindolin-5-yl)-[1,2,4]triazolo[1,5-a]pyrimidin-4(7H)-yl)acetamide] | 1 to 100 nM |
| CCO/C=C/c1nc2n(CC(=O)Nc3ccc(C(F)(F)F)cc3Cl)c(CC)c(N3CCN(C(=O)c4ncnc(C)c4O)CC3)c(=O)n2n1 [Example 193, (E)-N-(2-chloro-4-(trifluoromethyl)phenyl)-2-(2-(2-ethoxyvinyl)-5-ethyl-6-(4-(5-hydroxy-6-methylpyrimidine-4-carbonyl)piperazin-1-yl)-7-oxo-[1,2,4]triazolo[1,5-a]pyrimidin-4(7H)-yl)acetamide] | 1 to 100 nM |
| CCc1c(N2CCN(C(=O)c3ncccc3O)CC2)c(=O)n2nc(C3=Cc4ccccc4C3)nc2n1CC(=O)Nc1ccc(C(F)(F)F)cc1Cl [Example 72, N-(2-chloro-4-(trifluoromethyl)phenyl)-2-(5-ethyl-6-(4-(3-hydroxypicolinoyl)piperazin-1-yl)-2-(1H-inden-2-yl)-7-oxo-[1,2,4]triazolo[1,5-a]pyrimidin-4(7H)-yl)acetamide] | 1 to 100 nM |
| CCc1c(N2CCN(C(=O)c3ncnc(C)c3O)CC2)c(=O)n2nc(-c3ccc4nc(N5CCOCC5)sc4c3)nc2n1CC(=O)Nc1ccc(C(F)(F)F)cc1Cl [Example 171, N-(2-chloro-4-(trifluoromethyl)phenyl)-2-(5-ethyl-6-(4-(5-hydroxy-6-methylpyrimidine-4-carbonyl)piperazin-1-yl)-2-(2-morpholinobenzo[d]thiazol-6-yl)-7-oxo-[1,2,4]triazolo[1,5-a]pyrimidin-4(7H)-yl)acetamide] | 1 to 100 nM |
| CCc1c(N2CCN(C(=O)c3ncnc(C)c3O)CC2)c(=O)n2nc(C#CC3CC3)nc2n1CC(=O)Nc1ccc(C(F)(F)F)cc1Cl [Example 173, N-(2-chloro-4-(trifluoromethyl)phenyl)-2-(2-(cyclopropylethynyl)-5-ethyl-6-(4-(5-hydroxy-6-methylpyrimidine-4-carbonyl)piperazin-1-yl)-7-oxo-[1,2,4]triazolo[1,5-a]pyrimidin-4(7H)-yl)acetamide] | 1 to 100 nM |
| Cc1ncnc(C(=O)N2CCN(c3c(C)n(CC(=O)Nc4ccc(C(F)(F)F)cc4Cl)c4nc(C5=CC6CC(=O)CC6C5)nn4c3=O)CC2)c1O (stereo not drawn) [Example 32, N-(2-chloro-4-(trifluoromethyl)phenyl)-2-(6-(4-(5-hydroxy-6-methylpyrimidine-4-carbonyl)piperazin-1-yl)-5-methyl-7-oxo-2-(5-oxo-1,3a,4,5,6,6a-hexahydropentalen-2-yl)-[1,2,4]triazolo[1,5-a]pyrimidin-4(7H)-yl)acetamide] | 1 to 100 nM |
| CCc1c(N2CCN(C(=O)c3ncnc(C)c3O)CC2)c(=O)n2nc(C3=CC4CC4C3)nc2n1CC(=O)Nc1ccc(SC(F)(F)F)cc1 (stereo not drawn) [Example 177, 2-(2-(bicyclo[3.1.0]hex-2-en-3-yl)-5-ethyl-6-(4-(5-hydroxy-6-methylpyrimidine-4-carbonyl)piperazin-1-yl)-7-oxo-[1,2,4]triazolo[1,5-a]pyrimidin-4(7H)-yl)-N-(4-((trifluoromethyl)thio)phenyl)ac etamide] | 1 to 100 nM |
